The Km is the substrate concentration at which the rate is half of its maximum.

Here are results for 1 compound from PMC7407621, “Enhancing a de novo enzyme activity by computationally-focused ultra-low-throughput screening” (Chemical Science, 2020).

The subject of the assay is GNCA4-WT (GNCA4-W229D/F290W). The conditions noted are these: pH 7, 25 °C, 100 mM NaCl, 5% acetonitrile, His-tag.

`O=[N+]([O-])c1ccc2oncc2c1` [5-nitrobenzisoxazole]: the Km is 3.7 ± 0.8 mM.
